Reference: patent US20200009163A1, “POLYPHOSPHATES AS INHIBITORS OF CALCIUM CRYSTALLIZATION” (priority 2017, published 2020)

Columns and labels:
[1] = ISE (ion selective electrode) measurement of inhibition of COM crystallization from aqueous solution; conditions: FIG. 3
Source text: FIG. 3 depicts experimental results obtained using an example of a LTPP compound (Na5P3O10) and an example of a HMP compound ((NaPO3)6) to inhibit crystallization of […] from aqueous solution. Results for a citrate compound (Na3C6H5O7), which is commonly used in the treatment of kidney stones, is presented for purposes of comparison. In FIG. 3, the x-axis represents a measure of concentration (micromolar (μM) concentration on a logarithmic scale) of the inhibitor present in the solution. The y-axis represents percent inhibition (% reduction in the rate of crystallization) of COM crystallization as compared to a control solution having no inhibitor compounds therein. The effect of the inhibitors on COM growth was estimated using ISE (ion selective electrode) measurements. This measurement technique enables quantification of the extent of inhibition on calcium crystal growth as a function of inhibitor concentration. More specifically, ISE measures free calcium concentration in solution as a function of time to measure the rate of crystallization in the absence and presence of inhibitor. This technique can be used to measure the effectiveness of the polyphosphates and polyphosphate derivatives at inhibiting or modifying calcium crystal growth. The values of “% inhibition” that were obtained by this technique, and presented in FIG. 3 for the different combinations of inhibitor type and concentration, reflect rates of crystallization that have been normalized with respect to the rate of crystallization for a control solution (e.g., inhibitor concentration of zero). The % inhibition refers to the averages of at least 3 separate experiments. The solutions tested were aqueous solutions of calcium chloride (CaCl2)), sodium oxalate (Na2C2O4), and sodium chloride (NaCl). The tested solutions further included the inhibitor/modifier compound at the stated concentration level.

[2] = Bulk calcium oxalate crystallization, optical microscope images and crystal frequency; conditions: for calcium oxalate crystals observed (optical microscope): control crystals approximately 25-50 μm along c-axis
Method: (§1) FIG. 4A depicts optical microscope images showing results of calcium oxalate crystallization from a control solution and solutions including LTPP Na5P3O10 at concentrations of 5 μM and 15 μM. FIG. 4B depicts effects of Na5P3O10 concentrations on calcium oxalate crystal frequency. […] Crystals formed from the control solution were approximately 25-50 μm in size as measured along the c-axis, which is the longest dimension.
as §1, with “FIG. 5A” for “FIG. 4A”, “including HMP (NaPO3)6” for “including LTPP Na5P3O10”, “of 0.3” for “of 5”, “and 0.7” for “and 15”, “FIG. 5B” for “FIG. 4B”, “of (NaPO3)6” for “of Na5P3O10”
FIG. 6 depicts optical microscope images showing results of calcium oxalate crystallization during bulk studies at different concentrations of LTPP. The leftmost image is a representative control crystal.

## O=C(O)CC(O)(CC(=O)O)C(=O)O [citrate, Na3C6H5O7, reference compound]
[1]; inhibitor concentration of around 320 μM, maximum reached even at much higher concentrations
  percent inhibition (% reduction in the rate of crystallization) of COM crystallization: about 60%

## (NaPO3)6 [HMP]
[1]; inhibitor concentration of less than about 1 μM, vs control solution without inhibitor
  percent inhibition (% reduction in the rate of crystallization) of COM crystallization: approximately 100%
[2]; 0.7 μM inhibitor, FIG. 5A
  calcium oxalate crystals observed (optical microscope): Very small crystals
[2]; higher HMP solution concentrations (above 0.7 μM), FIG. 5B
  calcium oxalate crystal frequency: no definitive crystals being observed

## Na5P3O10 [LTPP]
[1]; inhibitor concentration range of about 5 μM to about 125 μM, vs control solution without inhibitor
  percent inhibition (% reduction in the rate of crystallization) of COM crystallization: 30-100%
[2]; 5 μM and 15 μM inhibitor vs control crystal, FIG. 6
  crystal morphology (habit) of calcium oxalate crystals: morphology of the crystals change with increasing inhibitor concentration
[2]; 15 μM inhibitor, FIG. 4A
  calcium oxalate crystals observed (optical microscope): very small crystals
[2]; higher LTPP solution concentrations (above 15 μM), FIG. 4B
  calcium oxalate crystal frequency: no definitive crystals being observed
